According to patent US7854922B2, “Skin preparation for external use characterized by containing sugar derivative of α, α-trehalose” (Kabushiki Kaisha Hayashibara Seibutsu Kagaku Kenkyujo, priority 2003, dated 2010):

Assays:
[1] = test system: Streptococcus mutans OMZ-176; assay: Test for acidic fermentation; format: cell-based
Procedure: (§1) The resulting precipitate was washed with Stephan buffer (pH7.0), and centrifuged to collect a bacteria precipitate. Equal volume of Stephan buffer was added to the bacteria precipitate, followed by suspending the precipitate in the buffer to give a final concentration of 50% (v/v) in order to prepare two bacteria suspensions for testing. A half milliliter of the bacteria suspension was admixed with 0.5 ml of the above test saccharide solution and incubated at 37° C. for 90 minutes, while measuring the pH at 5, 15, 30, 60, and 90 minutes after the initiation of the culture. The Stephan's buffer was prepared by admixing 1 ml of “solution A” and “solution B” with distilled water to give a final volume 100 ml, and adjusting to pH7.0 (“solution A”: dissolving 71 g of Na2HPO4, 7.92 g of KOH and 68.1 g of KH2PO4 in distilled water to give a final volume 1,000 ml; and “solution B”: dissolving 45.4 g of KH2PO4, 3.2 g of MgSO4 2H2O and 100 ml of 1.2N HCl in distilled water to give a final volume 1,000 ml).

[2] = test system: Streptococcus sobrinus 6715; assay: Test for acidic fermentation; format: cell-based
Procedure: as §1

[3] = test system: crude water-insoluble glucan producing enzyme; assay: Test for the production of water-insoluble glucan; format: biochemical, Streptococcus mutans OMZ-176
Procedure: To examine the effect of the syrup containing saccharide derivatives of α,α-trehalose, prepared in Example 6, on the production of water-insoluble glucan, the following experiment was carried out. According to usual method, Streptococcus mutans OMZ-176 was cultured to prepare a crude water-insoluble glucan producing enzyme solution (25 mg protein/ml). Test saccharide solutions were prepared by dissolving the syrup prepared in Example 1, the syrup prepared in Example 6, or α-maltosyl α,α-trehalose used in Experiment 1 in purified water to give a final concentration 2% on a dry solid basis. A half milliliter of one of the test saccharide solution was admixed with 0.25 ml of the crude water-insoluble glucan producing enzyme solution, 0.75 ml of 0.1 M phosphate buffer, and 0.5 ml of 2% sucrose. The resulting reaction mixture was placed in a new test tube (sized with 10 mm in diameter and 130 mm in height) slanted at an elevation angle of 30 degrees, and kept at 37° C. for 16 hours. The supernatant was gently collected. The remaining precipitate was washed with deionized water by centrifuging twice to collect a precipitate as adherent glucan. The washing solution and the above supernatant was mixed together and centrifuged at 5,000 rpm for 10 minutes to collect precipitate. The resulting precipitate was washed with deionized water and centrifuged to collect a non-adherent glucan. The adherent and non-adherent glucan were weighed. The total weight thereof was calculated as water-insoluble glucan. As a control, distilled water was used instead of the test saccharide solution. The water-insoluble glucan as control were weighed in the same manner. Inhibitory rate (%) of the production of water-insoluble glucan was calculated in such a manner of dividing the value of each test saccharide solution by that of the control, multiplying the resulting value by 100, and subtracting the resulting value from 100.

[4] = Hygroscopicity and solubility in water of the products; format: physicochemical
[5] = Test for absorbing or releasing moisture (comparison with usual moisturizing agents); format: physicochemical; conditions: 75% sample, after RH 60% for 216 hours
Procedure: The syrup containing saccharide derivatives of α,α-trehalose was confirmed to have a satisfactory property of absorbing and releasing moisture. To compare other saccharide used as a usual moisturizing agent for cosmetics, the following experiment was carried out. Test samples, containing 75%, on a dry solid basis, of either of the syrup prepared in Example 6, concentrated glycerin, sorbitol or maltitol, were prepared. About 1 g of each solution was placed in two containers. The containers were preciously weighed and kept at RH 60% for 216 hours. One of containers was kept at RH 80% and the other container was kept at PH 33%. After 24 hours or 168 hours, they were weighed.

[6] = test system: Mouse fibroblast cells (L-929); assay: Test for cell protection (Alamar Blue); format: cell-based; conditions: 1% in D-MEM before one-hour drying
Procedure: To examine the influence of the syrup containing saccharide derivatives of α,α-trehalose, prepared in Example 6, on cell protection, the following experiment was carried out. […] As controls, control media containing D-MEM supplemented with 10% fetal calf serum and optionally containing 1% glycerin were prepared. The control mediums were added in the medium-removed wells of the remaining four plates, respectively. The cells were cultured for one day, dried for one hour in such a manner of keeping in opened plate under the sterile condition after the medium was removed from the wells by aspiration. Then, the cells were cultured in D-MEM supplemented with 10% fetal calf serum for three days while changing the medium once a day. The resulting plates were subjected to the measurement of cell amount of each well using “Alamar Blue” commercialized by Wako Pure Chemical Industries, Ltd., Osaka, Japan, just after the drying, and four hours, one day, two days or three days after the drying. […] In detail, the medium was added to each well in an amount of 4 ml. One plate was used for each measurement for the amount of cells treated with the test medium or the two control mediums. […] As evidence from the result in Table 10, the test medium or the control media increased the rate of cell proliferation of fibroblast cells. The control medium containing 1% of glycerin increased cell amount almost equal to the control medium containing only D-MEM. […] Influence caused by UV-irradiation was examined in the same manner as above instead of exposure to a drying condition (data not shown).

TNF-α = assay: Production of TNF-α by macrophage cell line RAW264.7 stimulated with IFN-γ and LPS; format: cell-based; conditions: data not shown
From the text: Glycerin enhanced the production of TNF-α in a concentration-dependent manner and inhibited the production of ICAM-1 molecule.

[7] = Browning of L-ascorbic acid kept at 50° C. for 14 days (Experiment 3); format: physicochemical
Procedure: An aqueous solution further containing 10 parts by weight of glycerin (concentrated glycerin in cosmetic grade, commercialized by Kao Co., Ltd., Tokyo, Japan) instead of saccharide derivatives of α,α-trehalose was prepared. Three resulting solutions were kept at 50° C. under the shaded condition for 14 days. To examine browning, values of absorbance 420 nm of the test samples were measured by usual method and compared with that of the starting test samples. To examine the degree of coloring, relative values of test samples were calculated by comparing the value of differential absorbance of the solution containing only L-ascorbic acid, defined as 100%. Degree of coloring=(Difference of absorbance of test sample containing saccharide derivatives of α,α-trehalose or glycerin)/(Difference of absorbance of control sample containing only L-ascorbic acid)×100

[8] = 0.7% test saccharide solution, 37° C., reaction time 0 minute
[9] = 2% test saccharide solution with sucrose, 37° C., 16 hours
[10] = reaction time 5 minutes, listed as sucrose

Relative weight change rate (%) ([5]; RH 33%, 0 hour) | Relative weight change rate (%) ([5]; RH 33%, 24 hours) | Relative weight change rate (%) ([5]; RH 33%, 168 hours) | Relative weight change rate (%) ([5]; RH 80%, 0 hour) | Relative weight change rate (%) ([5]; RH 80%, 24 hours) | Relative weight change rate (%) ([5]; RH 80%, 168 hours) | Compound | pH [1, 8] | pH ([1]; reaction time 5 minutes) | pH ([1]; reaction time 15 minutes) | pH ([1]; reaction time 30 minutes) | pH ([1]; reaction time 60 minutes) | pH ([1]; reaction time 90 minutes) | pH [2, 8] | pH ([2]; reaction time 5 minutes) | pH ([2]; reaction time 15 minutes) | pH ([2]; reaction time 30 minutes) | pH ([2]; reaction time 60 minutes) | pH ([2]; reaction time 90 minutes) | other results
– | – | – | – | – | – | OC[C@H]1O[C@H](O[C@H]2O[C@H](CO)[C@@H](O[C@H]3O[C@H](CO)[C@@H](O[C@H]4O[C@H](CO)[C@@H](O)[C@H](O)[C@H]4O)[C@H](O)[C@H]3O)[C@H](O)[C@H]2O)[C@H](O)[C@@H](O)[C@@H]1O [Example 5, α-maltosyl α,α-trehalose] | 6.72 | 6.70 | 6.64 | 6.58 | 6.51 | 6.43 | 6.72 | 6.70 | 6.64 | 6.58 | 6.51 | 6.43 | Production of water-insoluble glucan, Adhesive glucan [3, 9]: 1120 μg/10 mg sucrose; Production of water-insoluble glucan, Non-adhesive glucan [3, 9]: 1009 μg/10 mg sucrose; Production of water-insoluble glucan, Total glucan [3, 9]: 2129 μg/10 mg sucrose; Inhibition rate of production, Adhesive glucan ([3]; versus distilled water): (50) %; Inhibition rate of production, Non-adhesive glucan ([3]; versus distilled water): (13) %; Inhibition rate of production, Total glucan ([3]; versus distilled water): (37) %; hygroscopicity [4]: low; solubility in water [4]: satisfactory
0.0% | −13.8% | −18.8% | 0.0% | 8.2% | – | OCC(O)CO [Glycerin, glycerin] | – | – | – | – | – | – | – | – | – | – | – | – | Rate of cell proliferation (%) ([6]; One day after dried): 165%; Rate of cell proliferation (%) ([6]; One hour (defined as 100%)): 100%; Rate of cell proliferation (%) ([6]; Three days after dried): 243%; Rate of cell proliferation (%) ([6]; Two days after dried): 235%; production of TNF-α (TNF-α): inhibited the production of TNF-α in a concentration-dependent manner
– | – | – | – | – | – | O=C1O[C@H]([C@@H](O)CO)C(O)=C1O [L-Ascorbic acid, L-ascorbic acid] | – | – | – | – | – | – | – | – | – | – | – | – | Absorbance of test sample kept after 14 days (420 nm) ([7]; 50° C., shaded, 14 days): 5.000; Difference of absorbance (420 nm) ([7]; 14 days minus starting): 4.999; Absorbance of starting test sample (420 nm) ([7]; pH 6.5 aqueous solution): 0.001; Degree of coloring (%) ([7]; relative to solution containing only L-ascorbic acid as 100%): 100%
0.0% | −1.4% | −4.2% | 0.0% | 3.5% | 5.3% | OC[C@@H](O)[C@@H](O[C@H]1O[C@H](CO)[C@@H](O)[C@H](O)[C@H]1O)[C@H](O)[C@@H](O)CO [Maltitol, maltitol] | – | – | – | – | – | – | – | – | – | – | – | – | –
0.0% | −2.4% | −5.0% | 0.0% | 5.4% | 10.7% | OC[C@@H](O)[C@@H](O)[C@H](O)[C@@H](O)CO [Sorbitol, sorbitol] | – | – | – | – | – | – | – | – | – | – | – | – | –
– | – | – | – | – | – | OC[C@H]1O[C@@](CO)(O[C@H]2O[C@H](CO)[C@@H](O)[C@H](O)[C@H]2O)[C@@H](O)[C@@H]1O [Sucrose, sucrose] | 6.60 | 4.05 | 3.97 | 3.99 | 3.99 | 4.01 | 6.74 | 4.18 | 3.87 | 3.81 | 3.82 | 3.91 | pH [1, 10]: about 4.0; pH [2, 10]: about 4.0
